Results reported in patent US20240315990A1, “Adelmidrol For Use In Diseases Characterized By Insufficient Agonism Of PPAR-GAMMA Receptor” (Epitech Group S.P.A., priority 2016, published 2024).

Target: T1, PPAR-gamma receptor (Rattus norvegicus, UniProt O88275)
T1 construct: from tissue; host or cells: live rat (in vivo, paw edema model)
T1 sequence (O88275 1-505): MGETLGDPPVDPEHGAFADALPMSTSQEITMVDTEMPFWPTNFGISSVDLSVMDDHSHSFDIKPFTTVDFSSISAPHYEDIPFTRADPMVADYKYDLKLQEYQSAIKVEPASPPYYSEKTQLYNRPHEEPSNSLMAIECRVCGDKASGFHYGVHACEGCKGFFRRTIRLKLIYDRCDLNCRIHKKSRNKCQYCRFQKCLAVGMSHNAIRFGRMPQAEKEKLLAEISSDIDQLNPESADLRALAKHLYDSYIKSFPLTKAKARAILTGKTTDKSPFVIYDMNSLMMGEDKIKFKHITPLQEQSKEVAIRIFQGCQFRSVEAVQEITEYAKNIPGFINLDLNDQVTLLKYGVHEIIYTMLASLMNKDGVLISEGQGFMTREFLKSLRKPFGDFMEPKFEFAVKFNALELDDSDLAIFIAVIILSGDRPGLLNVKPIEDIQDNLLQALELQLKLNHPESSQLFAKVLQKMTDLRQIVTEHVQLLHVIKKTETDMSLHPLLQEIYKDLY
Test: carrageenan-induced rat paw edema with PPAR-gamma antagonist GW9662, residence time of the paw on the hot plate
Format: in vivo
Settings: GW9662 1 mg/kg i.p. 30 min before CAR, Adelmidrol 10 mg/kg i.p.
Description: The experimental model of carrageenan-induced rat paw edema is as shown above. In this experiment, the effect was assessed by measuring the residence time of the animal's paw on the hot plate, thus obtaining percentage data with respect to the control treated with carrageenan alone.
The rats (10 animals per group) were divided into the following experimental groups: • CAR+physiological solution; • CAR+GW9662 (1 mg/kg)+Adelmidrol (10 mg/kg); GW9662 was administered i.p. 30 min before injecting CAR and Adelmidrol (i.p.) when injecting CAR; • CAR+Adelmidrol (10 mg/kg); Adelmidrol was administered i.p. when injecting CAR.

## O=C(Nc1ccccc1)c1cc([N+](=O)[O-])ccc1Cl [GW9662, reference compound]
  effect of pretreatment with PPAR-gamma antagonist on the protective action of Adelmidrol: antagonized the effect of Adelmidrol thus substantially abolishing the protective action thereof
